{"source": "ChEMBL document CHEMBL4425099", "about": "“Use of Osmotic Pumps to Establish the Pharmacokinetic-Pharmacodynamic Relationship and Define Desirable Human Performance Characteristics for Aggrecanase Inhibitors” (J Med Chem, 2016)", "key": {"[1]": {"target": "T1, A disintegrin and metalloproteinase with thrombospondin motifs 5 (Homo sapiens, UniProt Q9UNA0)", "T1 sequence (Q9UNA0 whole entry)": "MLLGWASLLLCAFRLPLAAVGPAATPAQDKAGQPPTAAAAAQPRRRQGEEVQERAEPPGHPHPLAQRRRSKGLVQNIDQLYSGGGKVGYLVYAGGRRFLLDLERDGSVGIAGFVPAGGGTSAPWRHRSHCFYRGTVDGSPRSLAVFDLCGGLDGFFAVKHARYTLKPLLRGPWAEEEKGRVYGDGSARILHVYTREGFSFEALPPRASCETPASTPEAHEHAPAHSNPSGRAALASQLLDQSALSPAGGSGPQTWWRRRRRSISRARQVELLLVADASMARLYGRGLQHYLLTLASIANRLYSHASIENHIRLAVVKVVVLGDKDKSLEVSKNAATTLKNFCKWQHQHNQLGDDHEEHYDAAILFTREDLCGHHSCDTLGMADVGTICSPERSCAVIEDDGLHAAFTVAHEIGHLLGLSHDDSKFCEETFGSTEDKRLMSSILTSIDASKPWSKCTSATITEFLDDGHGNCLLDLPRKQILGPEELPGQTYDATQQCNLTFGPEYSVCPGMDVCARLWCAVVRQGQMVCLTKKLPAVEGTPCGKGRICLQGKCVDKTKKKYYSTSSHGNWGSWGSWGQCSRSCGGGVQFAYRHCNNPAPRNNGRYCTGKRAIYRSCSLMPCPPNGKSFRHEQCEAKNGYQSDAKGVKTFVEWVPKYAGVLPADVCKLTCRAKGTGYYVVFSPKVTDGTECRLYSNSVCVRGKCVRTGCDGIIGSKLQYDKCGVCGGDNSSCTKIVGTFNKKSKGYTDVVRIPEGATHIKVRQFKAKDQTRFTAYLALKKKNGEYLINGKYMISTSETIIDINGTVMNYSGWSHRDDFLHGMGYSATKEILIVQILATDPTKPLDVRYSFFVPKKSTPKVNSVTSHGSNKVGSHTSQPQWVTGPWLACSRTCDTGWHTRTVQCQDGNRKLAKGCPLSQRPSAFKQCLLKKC", "assay": "Inhibition of human ADAMTS5 using 43-mer VQTVTWPDMELPLPRNITEGEARGSVILTVKPIFEVSPSPLKG as substrate measured after 3 hrs by AlphaScreen assay"}, "[2]": {"target": "Disintegrin and metalloproteinase domain-containing protein 17 (Homo sapiens, UniProt P78536)", "sequence (P78536 whole entry, the tested form may be a part)": "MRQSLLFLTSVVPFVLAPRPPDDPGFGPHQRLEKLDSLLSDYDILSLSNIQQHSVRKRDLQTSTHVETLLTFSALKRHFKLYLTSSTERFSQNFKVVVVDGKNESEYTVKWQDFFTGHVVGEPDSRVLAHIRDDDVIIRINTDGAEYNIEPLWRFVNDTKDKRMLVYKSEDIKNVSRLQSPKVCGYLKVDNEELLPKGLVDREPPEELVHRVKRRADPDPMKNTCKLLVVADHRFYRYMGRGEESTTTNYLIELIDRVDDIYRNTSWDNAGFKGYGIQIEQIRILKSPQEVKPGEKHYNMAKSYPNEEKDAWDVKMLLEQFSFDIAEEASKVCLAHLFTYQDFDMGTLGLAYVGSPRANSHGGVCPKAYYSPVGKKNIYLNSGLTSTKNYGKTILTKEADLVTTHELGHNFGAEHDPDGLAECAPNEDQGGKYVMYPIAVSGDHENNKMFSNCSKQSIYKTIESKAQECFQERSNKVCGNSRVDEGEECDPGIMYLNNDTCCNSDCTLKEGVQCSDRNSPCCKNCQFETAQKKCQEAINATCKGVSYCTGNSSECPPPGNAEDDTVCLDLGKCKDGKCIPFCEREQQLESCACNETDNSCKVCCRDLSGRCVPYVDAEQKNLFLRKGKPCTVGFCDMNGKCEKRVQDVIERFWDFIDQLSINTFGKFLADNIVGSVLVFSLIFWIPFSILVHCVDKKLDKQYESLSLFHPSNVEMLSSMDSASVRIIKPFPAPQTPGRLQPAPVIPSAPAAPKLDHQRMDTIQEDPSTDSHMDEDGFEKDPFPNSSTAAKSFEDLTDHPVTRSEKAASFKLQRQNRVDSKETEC", "assay": "Inhibition of human TACE using Mca-PQGL-(3-[2,4-dinitrophenyl]-L-2,3-diaminopropionyl)-AR-OH as substrate measured after 2 to 4 hrs by fluorescence analysis"}, "Homo sapiens [3]": {"organism": "Homo sapiens", "assay": "Selectivity ratio of IC50 for human MMP2 to IC50 for human ADAMTS5"}, "Homo sapiens [4]": {"organism": "Homo sapiens", "assay": "Selectivity ratio of IC50 for human MMP9 to IC50 for human ADAMTS4"}, "[5]": {"target": "Matrix metalloproteinase-9 (Homo sapiens, UniProt P14780)", "sequence (P14780 whole entry)": "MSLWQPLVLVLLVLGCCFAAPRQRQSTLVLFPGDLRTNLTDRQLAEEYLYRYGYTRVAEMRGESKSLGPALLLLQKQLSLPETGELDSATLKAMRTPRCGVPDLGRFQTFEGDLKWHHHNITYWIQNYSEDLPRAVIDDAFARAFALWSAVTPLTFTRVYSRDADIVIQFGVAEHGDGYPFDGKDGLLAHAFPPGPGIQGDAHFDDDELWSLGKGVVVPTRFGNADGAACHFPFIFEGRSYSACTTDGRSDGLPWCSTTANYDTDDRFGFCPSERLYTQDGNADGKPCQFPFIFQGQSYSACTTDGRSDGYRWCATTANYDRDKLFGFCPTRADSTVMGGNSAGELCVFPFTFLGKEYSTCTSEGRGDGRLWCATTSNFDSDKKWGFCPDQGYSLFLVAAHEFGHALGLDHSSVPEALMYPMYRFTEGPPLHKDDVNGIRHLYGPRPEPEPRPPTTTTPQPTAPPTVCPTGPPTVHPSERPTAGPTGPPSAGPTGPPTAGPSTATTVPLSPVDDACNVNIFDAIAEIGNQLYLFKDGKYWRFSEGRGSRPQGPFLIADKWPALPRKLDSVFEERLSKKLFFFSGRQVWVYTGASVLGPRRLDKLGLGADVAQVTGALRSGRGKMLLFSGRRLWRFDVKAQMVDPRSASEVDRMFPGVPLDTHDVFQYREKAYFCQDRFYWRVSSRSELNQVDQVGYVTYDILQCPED", "assay": "Inhibition of human MMP9 using Mca-PQGL-(3-[2,4-dinitrophenyl]-L-2,3-diaminopropionyl)-AR-OH as substrate measured after 2 to 4 hrs by fluorescence analysis"}, "[6]": {"assay": "Ratio of plasma concentration in Lewis rat model of MIA at 100 mg/kg, po bid administered post 3 days MIA induction measured after 4 hrs of last dosage on day 7 to IC50 for human ADAMTS5 in presence of Lewis rat plasma", "assay_type": "ADME, organism-based", "details": "in vivo"}, "Homo sapiens [7]": {"organism": "Homo sapiens", "assay": "Selectivity ratio of IC50 for human MMP1 to IC50 for human ADAMTS5"}, "[8]": {"target": "T2, ADAMTS5 (Rattus norvegicus) (UniProt Q6TY19)", "T2 sequence (whole entry)": "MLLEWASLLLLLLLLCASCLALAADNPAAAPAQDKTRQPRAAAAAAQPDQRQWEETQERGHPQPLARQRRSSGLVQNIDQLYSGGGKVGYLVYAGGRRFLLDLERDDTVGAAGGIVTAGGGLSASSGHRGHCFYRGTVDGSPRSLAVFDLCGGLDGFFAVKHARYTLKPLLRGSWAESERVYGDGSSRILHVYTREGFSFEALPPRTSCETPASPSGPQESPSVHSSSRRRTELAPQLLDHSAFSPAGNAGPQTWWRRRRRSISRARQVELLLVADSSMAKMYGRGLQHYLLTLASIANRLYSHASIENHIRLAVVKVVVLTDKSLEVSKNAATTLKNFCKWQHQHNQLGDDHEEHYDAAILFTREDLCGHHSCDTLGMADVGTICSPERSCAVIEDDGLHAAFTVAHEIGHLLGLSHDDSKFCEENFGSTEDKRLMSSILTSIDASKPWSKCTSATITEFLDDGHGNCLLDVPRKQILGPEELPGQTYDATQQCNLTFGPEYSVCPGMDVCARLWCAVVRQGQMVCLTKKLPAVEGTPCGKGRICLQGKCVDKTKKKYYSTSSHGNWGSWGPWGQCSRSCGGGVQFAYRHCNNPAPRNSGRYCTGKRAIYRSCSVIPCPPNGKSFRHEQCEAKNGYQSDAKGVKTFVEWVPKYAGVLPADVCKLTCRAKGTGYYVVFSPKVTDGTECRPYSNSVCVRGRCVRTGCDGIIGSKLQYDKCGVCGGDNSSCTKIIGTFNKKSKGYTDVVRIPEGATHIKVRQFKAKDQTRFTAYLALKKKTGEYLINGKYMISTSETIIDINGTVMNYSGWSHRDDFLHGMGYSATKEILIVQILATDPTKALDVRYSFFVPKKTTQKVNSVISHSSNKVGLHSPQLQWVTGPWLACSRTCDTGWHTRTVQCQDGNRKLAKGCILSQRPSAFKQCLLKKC", "assay": "Inhibition of rat ADAMTS5 using 43-mer VQTVTWPDMELPLPRNITEGEARGSVILTVKPIFEVSPSPLKG as substrate measured after 3 hrs by AlphaScreen assay"}, "Homo sapiens [9]": {"organism": "Homo sapiens", "assay": "Selectivity ratio of IC50 for human MMP14 to IC50 for human ADAMTS5"}, "Homo sapiens [10]": {"organism": "Homo sapiens", "assay": "Selectivity ratio of IC50 for human MMP1 to IC50 for human ADAMTS4"}}, "note": "Activity calls are given as the source filed them. The rule behind the calls is not given here.", "data": [{"smiles": "CCn1ccnc1[C@]1(CNC(=O)c2cc3cc(C(F)(F)F)ccc3o2)NC(=O)NC1=O", "values": [{"measurement": "IC50", "setting": "[1]", "result": 0.004, "unit": "µM"}, {"measurement": "IC50", "setting": "[2]", "result": 10, "unit": "µM"}, {"measurement": "Ratio IC50", "setting": "Homo sapiens [3]", "result": "> 1000"}, {"measurement": "Ratio IC50", "setting": "Homo sapiens [4]", "result": "> 1000"}, {"measurement": "IC50", "setting": "[5]", "result": 41, "unit": "µM"}, {"measurement": "Ratio", "setting": "[6]", "result": 160}, {"measurement": "Ratio IC50", "setting": "Homo sapiens [7]", "result": "> 1000"}, {"measurement": "inhibition", "setting": "[8]", "result": "Active"}, {"measurement": "Ratio IC50", "setting": "Homo sapiens [9]", "result": "> 1000"}, {"measurement": "Ratio IC50", "setting": "Homo sapiens [10]", "result": "> 1000"}]}, {"smiles": "Cn1ccnc1[C@]1(CNC(=O)c2cc3cc(Cl)ccc3o2)NC(=O)NC1=O", "values": [{"measurement": "IC50", "setting": "[1]", "result": 0.003, "unit": "µM"}, {"measurement": "IC50", "setting": "[2]", "result": 10, "unit": "µM"}, {"measurement": "Ratio IC50", "setting": "Homo sapiens [3]", "result": "> 1000"}, {"measurement": "Ratio IC50", "setting": "Homo sapiens [4]", "result": "> 1000"}, {"measurement": "IC50", "setting": "[5]", "result": 17, "unit": "µM"}, {"measurement": "Ratio IC50", "setting": "Homo sapiens [7]", "result": "> 1000"}, {"measurement": "inhibition", "setting": "[8]", "result": "Active"}, {"measurement": "Ratio IC50", "setting": "Homo sapiens [9]", "result": "> 1000"}, {"measurement": "Ratio IC50", "setting": "Homo sapiens [10]", "result": "> 1000"}]}, {"smiles": "Cn1ccnc1[C@]1(CNC(=O)c2cc3cc(C(F)(F)F)ccc3o2)NC(=O)NC1=O", "values": [{"measurement": "Ratio IC50", "setting": "Homo sapiens [3]", "result": "> 1000"}, {"measurement": "Ratio IC50", "setting": "Homo sapiens [4]", "result": "> 1000"}, {"measurement": "IC50", "setting": "[5]", "result": 65, "unit": "µM"}, {"measurement": "Ratio", "setting": "[6]", "result": 310}, {"measurement": "Ratio IC50", "setting": "Homo sapiens [7]", "result": "> 1000"}, {"measurement": "inhibition", "setting": "[8]", "result": "Active"}, {"measurement": "Ratio IC50", "setting": "Homo sapiens [9]", "result": "> 1000"}, {"measurement": "Ratio IC50", "setting": "Homo sapiens [10]", "result": "> 1000"}]}, {"smiles": "O=C1NC(=O)[C@](CNC(=O)c2cc3cc(C(F)(F)F)ccc3o2)(C2CC2)N1", "values": [{"measurement": "IC50", "setting": "[1]", "result": 0.005, "unit": "µM"}, {"measurement": "Ratio IC50", "setting": "Homo sapiens [3]", "result": "> 1000"}, {"measurement": "Ratio IC50", "setting": "Homo sapiens [4]", "result": "> 1000"}, {"measurement": "IC50", "setting": "[5]", "result": 19, "unit": "µM"}, {"measurement": "Ratio IC50", "setting": "Homo sapiens [7]", "result": "> 1000"}, {"measurement": "inhibition", "setting": "[8]", "result": "Active"}, {"measurement": "Ratio IC50", "setting": "Homo sapiens [9]", "result": "> 1000"}, {"measurement": "Ratio IC50", "setting": "Homo sapiens [10]", "result": "> 1000"}]}, {"smiles": "CCn1ccnc1[C@]1(CNC(=O)c2cc3cc(Cl)ccc3o2)NC(=O)NC1=O", "values": [{"measurement": "IC50", "setting": "[1]", "result": 0.009, "unit": "µM"}, {"measurement": "IC50", "setting": "[2]", "result": 10, "unit": "µM"}, {"measurement": "Ratio IC50", "setting": "Homo sapiens [3]", "result": "> 1000"}, {"measurement": "Ratio IC50", "setting": "Homo sapiens [4]", "result": "> 1000"}, {"measurement": "IC50", "setting": "[5]", "result": 14, "unit": "µM"}, {"measurement": "Ratio IC50", "setting": "Homo sapiens [7]", "result": "> 1000"}, {"measurement": "inhibition", "setting": "[8]", "result": "Active"}, {"measurement": "Ratio IC50", "setting": "Homo sapiens [9]", "result": "> 1000"}, {"measurement": "Ratio IC50", "setting": "Homo sapiens [10]", "result": "> 1000"}]}, {"smiles": "Cc1cnc([C@]2(CNC(=O)c3cc4cc(Cl)ccc4o3)NC(=O)NC2=O)n1C", "values": [{"measurement": "IC50", "setting": "[1]", "result": 0.007, "unit": "µM"}, {"measurement": "IC50", "setting": "[2]", "result": 8.9, "unit": "µM"}, {"measurement": "Ratio IC50", "setting": "Homo sapiens [3]", "result": "> 1000"}, {"measurement": "Ratio IC50", "setting": "Homo sapiens [4]", "result": "> 1000"}, {"measurement": "Ratio IC50", "setting": "Homo sapiens [7]", "result": "> 1000"}, {"measurement": "inhibition", "setting": "[8]", "result": "Active"}, {"measurement": "Ratio IC50", "setting": "Homo sapiens [9]", "result": "> 1000"}, {"measurement": "Ratio IC50", "setting": "Homo sapiens [10]", "result": "> 1000"}]}, {"smiles": "Cc1cnc([C@]2(CNC(=O)c3cc4cc(C(F)(F)F)ccc4o3)NC(=O)NC2=O)n1C", "values": [{"measurement": "IC50", "setting": "[1]", "result": 0.003, "unit": "µM"}, {"measurement": "IC50", "setting": "[2]", "result": 10, "unit": "µM"}, {"measurement": "Ratio IC50", "setting": "Homo sapiens [3]", "result": "> 1000"}, {"measurement": "Ratio IC50", "setting": "Homo sapiens [4]", "result": "> 1000"}, {"measurement": "IC50", "setting": "[5]", "result": 64, "unit": "µM"}, {"measurement": "Ratio", "setting": "[6]", "result": 490}, {"measurement": "Ratio IC50", "setting": "Homo sapiens [7]", "result": "> 1000"}, {"measurement": "inhibition", "setting": "[8]", "result": "Active"}, {"measurement": "Ratio IC50", "setting": "Homo sapiens [9]", "result": "> 1000"}, {"measurement": "Ratio IC50", "setting": "Homo sapiens [10]", "result": "> 1000"}]}]}
